{"source": "paper PMC2990764", "about": "“Evolution of Allosteric Citrate Binding Sites on 6-phosphofructo-1-kinase” (PLoS ONE, 2010)", "experiment_in_all_cases": "coupled spectrophotometric PFK1 assay ([…] nm) with purified enzyme", "type_in_all_cases": "biochemical", "key": {"[1]": {"biological_target": "T1, human muscle type 6-phosphofructo-1-kinase (PFK-M) (Homo sapiens, UniProt P08237)", "T1 construct": "gene PFKM; recombinant native human PFK-M expressed in E. coli RL257", "T1 sequence (P08237 2-780)": "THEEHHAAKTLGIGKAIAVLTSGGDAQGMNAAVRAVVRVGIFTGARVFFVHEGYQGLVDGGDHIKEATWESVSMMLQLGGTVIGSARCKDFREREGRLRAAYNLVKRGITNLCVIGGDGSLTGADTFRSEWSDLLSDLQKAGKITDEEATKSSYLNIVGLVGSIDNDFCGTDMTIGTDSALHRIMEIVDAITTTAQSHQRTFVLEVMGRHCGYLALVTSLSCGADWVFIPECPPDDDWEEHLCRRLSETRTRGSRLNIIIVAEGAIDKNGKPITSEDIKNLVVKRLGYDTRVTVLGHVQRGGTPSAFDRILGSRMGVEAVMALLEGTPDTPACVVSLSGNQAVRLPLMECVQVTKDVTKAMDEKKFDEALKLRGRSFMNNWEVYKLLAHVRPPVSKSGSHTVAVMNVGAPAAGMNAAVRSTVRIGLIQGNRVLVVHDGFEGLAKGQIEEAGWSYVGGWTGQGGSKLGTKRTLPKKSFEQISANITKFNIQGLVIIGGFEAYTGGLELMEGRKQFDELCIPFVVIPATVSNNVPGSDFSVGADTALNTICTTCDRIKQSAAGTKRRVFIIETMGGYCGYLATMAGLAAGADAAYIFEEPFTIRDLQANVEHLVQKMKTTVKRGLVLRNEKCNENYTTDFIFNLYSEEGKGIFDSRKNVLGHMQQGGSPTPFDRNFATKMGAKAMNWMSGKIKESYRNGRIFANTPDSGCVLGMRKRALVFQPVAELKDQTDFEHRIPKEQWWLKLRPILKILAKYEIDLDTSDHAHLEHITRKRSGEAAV"}, "[2]": {"biological_target": "T2, human muscle type 6-phosphofructo-1-kinase (PFK-M) (Homo sapiens, UniProt P08237, K617A)", "T2 construct": "gene PFKM; recombinant human PFK-M mutant expressed in E. coli RL257", "T2 sequence (P08237 2-780 K617A)": "T1 sequence (P08237 2-780) with K616A"}, "[3]": {"biological_target": "T3, human muscle type 6-phosphofructo-1-kinase (PFK-M) (Homo sapiens, UniProt P08237, K557R)", "T3 construct": "gene PFKM; recombinant human PFK-M mutant expressed in E. coli RL257", "T3 sequence (P08237 2-780 K557R)": "T1 sequence (P08237 2-780) with K556R"}}, "note": "Substitutions are numbered along the chain they refer to."}
{"smiles": "O=C(O)CC(O)(CC(=O)O)C(=O)O", "note": "[citrate]", "values": [{"measurement": "Ki", "setting": "[1]", "result": 50, "unit": "µM"}, {"measurement": "Ki", "setting": "[2]", "result": 500, "unit": "µM"}, {"measurement": "Ki", "setting": "[3]", "result": 300, "unit": "µM"}]}
